According to publication PMC6167311, “Structure of the NDH-2 – HQNO inhibited complex provides molecular insight into quinone-binding site inhibitors” (Biochimica et Biophysica Acta, 2018):

Tests used:
Type in all cases: biochemical
[1] = target: T1, NDH-2 (type II NADH:quinone oxidoreductase) (Caldalkalibacillus thermarum, UniProt F5L3B8, I379E); assay: NADH:menadione oxidoreduction assay, […] menadione, […] NADH
T1 construct: gene CathTA2_0279

[2] = target: T2, NDH-2 (type II NADH:quinone oxidoreductase) (Caldalkalibacillus thermarum, UniProt F5L3B8); assay: co-crystal structure at […] Å; IC50 in NADH:menadione oxidoreduction assay ([…] menadione) with purified enzyme
T2 construct: gene CathTA2_0279
T2 sequence (F5L3B8 entry or part of it): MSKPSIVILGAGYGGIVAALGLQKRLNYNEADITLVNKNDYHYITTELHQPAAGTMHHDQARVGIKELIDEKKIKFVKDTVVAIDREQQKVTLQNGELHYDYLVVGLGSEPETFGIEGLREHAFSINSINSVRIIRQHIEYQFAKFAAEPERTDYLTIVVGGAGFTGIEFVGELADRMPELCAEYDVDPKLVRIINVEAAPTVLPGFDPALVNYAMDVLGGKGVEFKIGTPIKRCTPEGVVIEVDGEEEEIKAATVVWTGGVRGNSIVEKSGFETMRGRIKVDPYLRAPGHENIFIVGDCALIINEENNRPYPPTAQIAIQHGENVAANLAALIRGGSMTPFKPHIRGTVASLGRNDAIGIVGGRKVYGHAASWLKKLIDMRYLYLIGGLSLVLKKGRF

[3] = target: T2, NDH-2 (type II NADH:quinone oxidoreductase); assay: NADH:menadione oxidoreduction turnover of purified enzyme ([…] s^−[…] at […] MD)

T1 sequence (F5L3B8 entry or part of it I379E): as the sequence (F5L3B8 entry or part of it) above

How did the IC50 [1] turn out when CCCCCCCc1cc(O)c2ccccc2[n+]1[O-] [compound 1, 2-heptyl-4-hydroxyquinoline-N-oxide] was run?
Its IC50 is 54.3 ± 1.2 µM.

What about the IC50 [2] of the same compound?
Its IC50 is 7.3 ± 1.2 µM.

How did the “NADH:menadione oxidoreduction turnover of purified enzyme (959.3 s^-1 at 400 μM)” value [3] turn out when CC1=CC(=O)c2ccccc2C1=O [menadione] was run?
The value was 959.3 s⁻¹.
